Results published in patent US9156801B2, “2-substituted oleanolic acid derivative, method preparing for same, and application thereof” (HANGZHOU BENSHENG PHARMACEUTICAL CO., LTD., priority 2011, dated 2015).
Converted amounts (≈) assume the structure as drawn.

Experiments:
[1] = system: Jurkat cell line; experiment: leukemia cell growth inhibition, MTT; type: cell-based; settings: Homo sapiens, 72 h; for inhibition at 16 µg/mL: 16 μg/mL compound, read-out: IR (cell proliferation inhibition rate)
From the text: (§1) Leukemia cell lines: leukemia cell lines: K562/adr (drug-resistant, chronic myeloid leukemia, CML), NB4 (acute promyelocytic leukemia, AML), Kasumi-1 (acute myeloid leukemia M2 type, AML-M2), Jurkat (acute lymphoblastic leukemia, ALL), all of which are donated by Cancer Research Institute of Zhejiang University, China; and H9 (acute lymphoblastic leukemia, ALL), which is purchased from China Center for Type Culture Collection (CCTCC).
(§2) Obtaining 6000 well-growing leukemia cells and inoculating them into wells of a 96-well cell culture plate. The culture medium is the 1640 cell culture medium containing 10% fetal bovine serum. After adding the 2-substituted oleanolic acid derivatives of different concentrations and mixing uniformly, placing the plate in a carbon dioxide cell incubator (5% CO2) at 37° C. and incubated for 72 hours. Then the relative number of viable cells is determined by MTT method. In this experiment, cell proliferation inhibition rate in control group (not treated with any compound) is set as 0%.

[2] = system: K562/adr cell line; experiment: leukemia cell growth inhibition, MTT; type: cell-based; settings: Homo sapiens, 72 h; for IC50: K562/Adr; for inhibition at 16 µg/mL: K562/adr, 16 μg/mL compound, read-out: IR (cell proliferation inhibition rate)
From the text: as §1, §2

[3] = system: H9 cell line; experiment: leukemia cell growth inhibition, MTT; type: cell-based; settings: Homo sapiens; for IC50: H9, 72 h; for inhibition at 16 µg/mL: H9, 16 μg/mL compound, 72 h, read-out: IR (cell proliferation inhibition rate)
From the text: as §1, §2

[4] = system: NB4 cell line; experiment: leukemia cell growth inhibition, MTT; type: cell-based; settings: Homo sapiens, NB-4; for inhibition at 16 µg/mL: NB4, 16 μg/mL compound, 72 h, read-out: IR (cell proliferation inhibition rate); for IC50: NB4, 72 h
From the text: as §1, §2

[5] = system: Kasumi-1 cell line; experiment: leukemia cell growth inhibition, MTT; type: cell-based; settings: Homo sapiens; for inhibition at 16 µg/mL: Kasumi-1, 16 μg/mL compound, 72 h, read-out: IR (cell proliferation inhibition rate); for IC50: Kasumi-1, 72 h
From the text: as §1, §2

[6] = system: A549 cell line; experiment: solid tumor cell growth inhibition, MTT; type: cell-based; settings: Homo sapiens; for IC50: A549, 72 h; for inhibition at 16 µg/mL: A549, 16 μg/mL compound, 72 h, read-out: IR (cell proliferation inhibition rate)
Procedure: (§3) Hep-2 (laryngeal carcinoma), A549 (human lung cancer), CaES-17 (esophageal cancer cell), PC-3 (prostate cancer), CNE (nasopharyngeal carcinoma cell), and SK-OV-3 (ovarian cancer cell), all of which are purchased from China Center For Type Culture Collection; RKO (human colon adenocarcinoma cell), MGC 803 (human gastric cancer cell), MG63 (osteosarcoma) and U87 MG (malignant glioma cell), all of which are purchased from Fuxiang Bio-tech Co. Ltd., Shanghai, China; PANC-1 (pancreatic cancer), Hep G2 (human liver cancer cell), Becap37 (human breast cancer cell), and Hela (human cervical cancer cell), all of which are donated by Cancer Research Institute of Zhejiang University, China.
(§4) Obtaining 4000 well-growing human solid tumor cells and inoculating them into wells of a 96-well cell culture plate. The culture medium is DMEM High Glucose cell culture medium containing 10% fetal bovine serum. The plate is placed in a carbon dioxide cell incubator (5% CO2) at 37° C. for 24 hours. After adding the 2-substituted oleanolic acid derivatives of different concentrations and mixing uniformly, the plate is placed in a carbon dioxide cell incubator (5% CO2) at 37° C. and incubated for 72 hours. Then the relative number of the living cells is determined by MTT method. In this experiment, the cell proliferation inhibition rate in control group (not treated with any compound) is set as 0%.

[7] = system: U87 MG cell line; experiment: solid tumor cell growth inhibition, MTT; type: cell-based; settings: Homo sapiens, U-87 MG, 72 h; for inhibition at 16 µg/mL: 16 μg/mL compound, read-out: IR (cell proliferation inhibition rate)
Procedure: as §3, §4

[8] = system: SK-OV-3 cell line; experiment: solid tumor cell growth inhibition, MTT; type: cell-based; settings: Homo sapiens; for IC50: SK-OV-3, 72 h; for inhibition at 16 µg/mL: SK-OV-3, 16 μg/mL compound, 72 h, read-out: IR (cell proliferation inhibition rate)
Procedure: as §3, §4

[9] = system: RKO cell line; experiment: solid tumor cell growth inhibition, MTT; type: cell-based; settings: Homo sapiens, 72 h; for inhibition at 16 µg/mL: 16 μg/mL compound, read-out: IR (cell proliferation inhibition rate)
Procedure: as §3, §4

[10] = system: PC-3 cell line; experiment: solid tumor cell growth inhibition, MTT; type: cell-based; settings: Homo sapiens; for IC50: PC-3, 72 h; for inhibition at 16 µg/mL: PC-3, 16 μg/mL compound, 72 h, read-out: IR (cell proliferation inhibition rate)
Procedure: as §3, §4

[11] = system: Becap37 cell line; experiment: solid tumor cell growth inhibition, MTT; type: cell-based; settings: Homo sapiens; for inhibition at 16 µg/mL: Becap37, 16 μg/mL compound, 72 h, read-out: IR (cell proliferation inhibition rate); for IC50: Becap37, 72 h
Procedure: as §3, §4

[12] = system: CaES-17 cell line; experiment: solid tumor cell growth inhibition, MTT; type: cell-based; settings: Homo sapiens, CaEs17; for inhibition at 16 µg/mL: CaES-17, 16 μg/mL compound, 72 h, read-out: IR (cell proliferation inhibition rate); for IC50: CaES-17, 72 h
Procedure: as §3, §4

[13] = system: PANC-1 cell line; experiment: solid tumor cell growth inhibition, MTT; type: cell-based; settings: Homo sapiens; for IC50: PANC-1, 72 h; for inhibition at 16 µg/mL: PANC-1, 16 μg/mL compound, 72 h, read-out: IR (cell proliferation inhibition rate)
Procedure: as §3, §4

[14] = system: CNE cell line; experiment: solid tumor cell growth inhibition, MTT; type: cell-based; settings: Homo sapiens, 72 h; for inhibition at 16 µg/mL: 16 μg/mL compound, read-out: IR (cell proliferation inhibition rate)
Procedure: as §3, §4

[15] = system: Hela cell line; experiment: solid tumor cell growth inhibition, MTT; type: cell-based; settings: Homo sapiens, 72 h; for IC50: HeLa; for inhibition at 16 µg/mL: Hela, 16 μg/mL compound, read-out: IR (cell proliferation inhibition rate)
Procedure: as §3, §4

[16] = system: MGC 803 cell line; experiment: solid tumor cell growth inhibition, MTT; type: cell-based; settings: Homo sapiens; for inhibition at 16 µg/mL: MGC 803, 16 μg/mL compound, 72 h, read-out: IR (cell proliferation inhibition rate); for IC50: MGC 803, 72 h
Procedure: as §3, §4

[17] = system: MG-63 cell line; experiment: solid tumor cell growth inhibition, MTT; type: cell-based; settings: Homo sapiens; for IC50: MG-63, 72 h; for inhibition at 16 µg/mL: MG-63, 16 μg/mL compound, 72 h, read-out: IR (cell proliferation inhibition rate)
Procedure: as §3, §4

[18] = system: Hep-2 cell line; experiment: solid tumor cell growth inhibition, MTT; type: cell-based; settings: Homo sapiens; for IC50: HEp-2, 72 h; for inhibition at 16 µg/mL: Hep-2, 16 μg/mL compound, 72 h, read-out: IR (cell proliferation inhibition rate)
Procedure: as §3, §4

[19] = system: Hep G2 cell line; experiment: solid tumor cell growth inhibition, MTT; type: cell-based, human; settings: Homo sapiens; for inhibition at 16 µg/mL: HepG2, 72 h, Hep G2, 16 μg/mL compound, 72 h, read-out: IR (cell proliferation inhibition rate); for IC50: HepG2, Hep G2, 72 h
Procedure: as §3, §4

[20] = system: RPMI8226 cell line; experiment: multiple myeloma cell growth inhibition, MTT; type: cell-based; settings: Homo sapiens, RPMI-8226; for inhibition at 16 µg/mL: RPMI8226, 16 μg/mL compound, 72 h, read-out: IR (cell proliferation inhibition rate); for IC50: RPMI8226, 72 h
Procedure: Multiple myeloma cell lines: RPMI8226 (multiple myeloma), purchased from Fuxiang Bio-tech Co. Ltd., Shanghai, China.
Obtaining 6000 well-growing cells as above and inoculating them into wells of a 96-well cell culture plate. The culture medium is the 1640 cell culture medium containing 10% fetal bovine serum. After adding the 2-substituted oleanolic acid derivatives of different concentrations and mixing uniformly, placing the plate in a carbon dioxide cell incubator (5% CO2) at 37° C. and incubated for 72 hours. Then the relative number of viable cells is determined by MTT method. In this experiment, cell proliferation inhibition rate in control group (not treated with any compound) is set as 0%.

## CCOCCNC(=O)C1C[C@@]2(C)C(CC[C@]3(C)C2CC=C2C4CC(C)(C)CC[C@]4(C(=O)OC)CC[C@]23C)C(C)(C)C1=O (some centres unmarked) [BS-OA-053]
[1]
  inhibition at 16 µg/mL: 13%
  IC50: > 16 µg/mL
[2]
  IC50: 10.8 µg/mL (≈ 18.4 µM)
  inhibition at 16 µg/mL: 60.9%
[3]
  IC50: 15.5 µg/mL (≈ 26.6 µM)
  inhibition at 16 µg/mL: 54.6%
[4]
  inhibition at 16 µg/mL: 71.3%
  IC50: 10.7 µg/mL (≈ 18.3 µM)
[5]
  inhibition at 16 µg/mL: 23.2%
  IC50: > 16 µg/mL
[6]
  IC50: > 16 µg/mL
  inhibition at 16 µg/mL: 2%
[7]
  inhibition at 16 µg/mL: 20.1%
  IC50: > 16 µg/mL
[8]
  IC50: > 16 µg/mL
  inhibition at 16 µg/mL: 22.7%
[9]
  inhibition at 16 µg/mL: -55.6%
  IC50: > 16 µg/mL
[10]
  IC50: > 16 µg/mL
  inhibition at 16 µg/mL: 38.8%
[11]
  inhibition at 16 µg/mL: -10.2%
  IC50: > 16 µg/mL
[12]
  inhibition at 16 µg/mL: -13.1%
  IC50: > 16 µg/mL
[13]
  IC50: > 16 µg/mL
  inhibition at 16 µg/mL: -3.3%
[14]
  inhibition at 16 µg/mL: 9.9%
  IC50: > 16 µg/mL
[15]
  IC50: > 16 µg/mL
  inhibition at 16 µg/mL: 27.5%
[16]
  inhibition at 16 µg/mL: 7.8%
  IC50: > 16 µg/mL
[17]
  IC50: > 16 µg/mL
  inhibition at 16 µg/mL: -32.5%
[18]
  IC50: > 16 µg/mL
  inhibition at 16 µg/mL: -10%
[19]
  inhibition at 16 µg/mL: 6.8%
  IC50: > 16 µg/mL
[20]
  inhibition at 16 µg/mL: 29.5%
  IC50: > 16 µg/mL

## COC(=O)[C@]12CCC(C)(C)CC1C1=CCC3[C@@]4(C)CC(C(=O)NCCCN(C)C)C(=O)C(C)(C)C4CC[C@@]3(C)[C@]1(C)CC2 (some centres unmarked) [BS-OA-042]
[1]
  inhibition at 16 µg/mL: 99%
  IC50: 2.43 µg/mL (≈ 4.07 µM)
[2]
  IC50: 0.64 µg/mL (≈ 1.07 µM)
  inhibition at 16 µg/mL: 98.4%
[3]
  IC50: 3.12 µg/mL (≈ 5.23 µM)
  inhibition at 16 µg/mL: 95.9%
[4]
  inhibition at 16 µg/mL: 100%
  IC50: 2.63 µg/mL (≈ 4.41 µM)
[5]
  inhibition at 16 µg/mL: 99.1%
  IC50: 4.1 µg/mL (≈ 6.87 µM)
[6]
  IC50: 2.06 µg/mL (≈ 3.45 µM)
  inhibition at 16 µg/mL: 96.9%
[7]
  inhibition at 16 µg/mL: 98.6%
  IC50: 2.54 µg/mL (≈ 4.26 µM)
[8]
  IC50: 3.63 µg/mL (≈ 6.08 µM)
  inhibition at 16 µg/mL: 97.9%
[9]
  inhibition at 16 µg/mL: 100%
  IC50: 3.29 µg/mL (≈ 5.51 µM)
[10]
  IC50: 4.78 µg/mL (≈ 8.01 µM)
  inhibition at 16 µg/mL: 100%
[11]
  inhibition at 16 µg/mL: 98.7%
  IC50: 4.32 µg/mL (≈ 7.24 µM)
[12]
  inhibition at 16 µg/mL: 98.1%
  IC50: 2.97 µg/mL (≈ 4.98 µM)
[13]
  IC50: 5.02 µg/mL (≈ 8.41 µM)
  inhibition at 16 µg/mL: 99.4%
[14]
  inhibition at 16 µg/mL: 99.5%
  IC50: 3.89 µg/mL (≈ 6.52 µM)
[15]
  IC50: 3.47 µg/mL (≈ 5.81 µM)
  inhibition at 16 µg/mL: 98.9%
[16]
  inhibition at 16 µg/mL: 99.2%
  IC50: 2.84 µg/mL (≈ 4.76 µM)
[17]
  IC50: 2.72 µg/mL (≈ 4.56 µM)
  inhibition at 16 µg/mL: 98.2%
[18]
  IC50: 5.99 µg/mL (≈ 10 µM)
  inhibition at 16 µg/mL: 95.2%
[19]
  inhibition at 16 µg/mL: > 96%
  IC50: 2.36 µg/mL (≈ 3.95 µM)
[20]
  inhibition at 16 µg/mL: 98.9%
  IC50: 0.68 µg/mL (≈ 1.14 µM)
